From patent US20170151204A1 (priority 2011, published 2017)
“Also recorded” adds a separate entry of the source.

Experiments:
human neutrophils [1] = test: TLR mRNA expression by human neutrophils (RT-PCR); format: cell-based; conditions: LTB4 100 nM or 1 μM, two hours
Method: Peripheral blood neutrophils or peripheral blood mononuclear cells were isolated from healthy donors and were purified by centrifugation over Ficoll™ separation medium gradient as already described (Larochelle B, Blood. 1998;92:291-299). Human neutrophils (2×10^6) were resuspended in culture medium and stimulated with a placebo solution (0.45% w/v NaCl containing 0.25% w/v dextrose, NS) or LTB4 (100 nM or 1 μM in placebo solution) for two hours. Following stimulation, total RNA was extracted and RT-PCR was performed using specific primers for human TLR2 (FIG. 1) and TLR7-9 (FIG. 3).

human neutrophils [2] = test: TLR2 protein expression on human neutrophils (flow cytometry); format: cell-based; conditions: LTB4 100 nM, 15-120 min, flow cytometry (FIG. 2)
Method: In FIG. 2A, cells were left untreated (1) or were stimulated with LTB4 (100 nM) for 15 (2), 30 (3), 60 (4) or 120 min (5). Cells were then fixed in paraformaldehyde and TLR2 expression was assessed by flow cytometry. Background cellular autofluorescence is represented by the dotted line (6).

human neutrophils [3] = test: TLR9 protein expression by human neutrophils (flow cytometry); format: cell-based
Method: (§1) In FIG. 4A, cells were left untreated (dotted line) or were stimulated with LTB4 (100 nM) for 15, 30, 60 or 120 min. Background cellular autofluorescence is represented by shaded histogram. Cells were then fixed in paraformaldehyde, permeabilized in methanol, and TLR9 expression was assessed by flow cytometry. In FIG. 4B, cells were pre-treated for 30 min with the high affinity LTB4 receptor antagonist U75302 (10 μM) prior to stimulation with LTB4 for 60 min. Cells were then fixed in paraformaldehyde, permeabilized in methanol, and TLR9 expression was assessed by flow cytometry. In FIGS. 4C-D, cells were stimulated with LTB4 or leukotrienes C4 (LTC4), leukotriene D4 (LTD4), the complement protein C5a or IL-8 for 60 min. Cells were then fixed in paraformaldehyde, permeabilized in methanol, and TLR9 expression was assessed by flow cytometry. In FIG. 4E, neutrophils were pretreated with LTB4 for 60 min. Following this pretreatment, neutrophils were incubated in the presence of CpG-ODN 2216 sequence (5′-G*G*GGGACGATCGTCG*G* G*G*G*G*-3′) (SEQ ID NO:1) that were tagged with cyanine-3 (Cy3) fluorochrome. After an incubation for 4 h with Cy3-CpG-ODN sequences, neutrophils were extensively washed with phosphate buffer and Cy3 expression (corresponding to the degree in CpG-ODN binding on human neutrophils) was assessed by flow cytometry. […]. […]

human neutrophils [4] = test: Cy3-CpG-ODN binding assay on human neutrophils (flow cytometry); format: cell-based; conditions: LTB4 pretreatment 60 min, then Cy3-CpG-ODN 2216 for 4 h; with or without inhibitory CpG-ODN (FIG. 4E-F)
Method: as §1

RIG-I = test: RIG-I-dependent promoter activation assay (luciferase) in BLT1-expressing HEK-293T cells; format: cell-based; conditions: RIG-I-expressing vector
IPS-1 = test: IPS-1-dependent promoter activation assay (luciferase) in BLT1-expressing HEK-293T cells; format: cell-based; conditions: IPS-1-expressing vector
[5] = test system: mouse embryonic fibroblasts (MEFs); test: IFNβ secretion by wild type mouse embryonic fibroblasts; format: cell-based; conditions: MEFs from wild type mice, LTB4 alone or with Sendai virus (FIG. 36)
[6] = test system: mouse embryogenic fibroblasts (MEF); format: cell-based; conditions: uninfected MEF, 6 hours, NacMDP 0.1, 1 and 10 μg/ml, LTB4 100 nM (FIG. 37)
IAV-infected MEF = format: cell-based, mouse
[7] = test system: Influenza A/PR/8/34 H1N1 (IAV); format: cell-based; conditions: MEF, IAV 0.1 m.o.i., 24 hours, LTB4 100 nM, NacMDP 0.1 μg/ml (FIG. 39)
[8] = test system: Influenza A/PR/8/34 H1N1 (IAV); test: IAV-infected mice: lung viral load, IL-6 and histology; format: in vivo; conditions: 50 pfu IAV intranasally; iv. daily for three days, LTB4 1 μg/kg, NacMDP 2 mg/kg; four days post-infection (FIG. 40)
Method: In FIG. 39, MEFs were generated and plated as described in Example VII. Cells were infected with IAV (0.1 m.o.i.) alone (−), LTB4 alone (100 nM) or with a combination of LTB4 and NacMDP (0.1 μg/ml) for 24 hours. Following infection, cell culture supernatants were harvested and assayed for viral load determination by standard plaque assay in MDCK cells. For in vivo assessment of the antiviral activity of LTB4 and NacMDP, 4-6 weeks old C57131/6 female mice (n=4/group) were infected intranasally (in.) with 50 plaque-forming units (pfu) of IAV (FIG. 40). Starting at day one post-infection, mice were treated daily for three days with either saline, LTB4 alone (1 μg/kg) or with a combination of LTB4 and NacMDP (2 mg/kg), via the intravenous (iv.) route. Four days post-infection, animals were sacrificed and viral loads were determined from triturated lungs by standard plaque assay in MDCK cells. […] In FIG. 39, * p≦0.05. […]
To further investigate the in vivo consequences associated with the treatment of IAV-infected mice with a combination of LTB4 and the NOD2 agonist NacMDP, 4-6 weeks old C57131/6 female mice (n=4/group) were infected as described in Example IX and treated with either saline or a combination of LTB4 and NacMDP also as described. In FIG. 41, four-day infected animals were sacrificed and IL-6 titers were determined from triturated lungs by ELISA. […]

SMILES	expression of TLR2 mRNA (human neutrophils [1]; RT-PCR (FIG. 1))	mRNA expression of TLR7-9 (human neutrophils [1]; RT-PCR (FIG. 3))	TLR2 expression (protein) (human neutrophils [2])	TLR9 expression compared to LTC4, LTD4, C5a and IL-8 (human neutrophils [3]; 60 min stimulation (FIG. 4C-D))	TLR9 expression (protein) (human neutrophils [3]; LTB4 100 nM, 15, 30, 60 or 120 min, with or without BLT1 antagonist U75302 10 μM (FIG. 4A-B))	CpG-ODN binding on human neutrophils (Cy3 expression) (human neutrophils [4])	NF-κB promoter activity (luciferase) (RIG-I; LTB4 stimulation 24 h (FIG. 28))	IFN-β promoter activity (luciferase) (RIG-I; LTB4 stimulation 24 h (FIG. 29))	NF-κB promoter activity (luciferase) (IPS-1; LTB4 stimulation 24 h (FIG. 30))	IFN-β promoter activity (luciferase) (IPS-1; LTB4 stimulation 24 h (FIG. 31))	secretion of IFNβ [5]	IL-6 secretion [6]	IL-6 secretion (IAV-infected MEF)	viral load (in vitro) [7]	viral load in lungs (in vivo) [8]
CCCCC/C=C\C[C@@H](O)/C=C/C=C/C=C\[C@@H](O)CCCC(=O)O [LTB4, 5S,12R-6,8,10,14(Z,E,E,Z)-eicosatetraenoic acid]	stimulated by LTB4 in a dose-dependent form	stimulated in a dose-dependent form	enhanced TLR2 expression; also recorded: upregulated TLR2 and TLR9 protein expression	potent inducer of TLR9 expression	induces TLR9 expression on human neutrophils in a time-dependent manner; also recorded: upregulated TLR2 and TLR9 protein expression	enhances CpG-ODN binding on human neutrophils in a TLR9-dependent manner	enhances NF-κB as well as IFN-β promoter activity	enhances NF-κB as well as IFN-β promoter activity	induces NF-κB as well as IFN-β promoter activity	induces NF-κB as well as IFN-β promoter activity	induces secretion of IFNβ	do not induce significant IL-6 secretion compared to background	significantly enhance IL-6 secretion	significant decrease in viral load	significant decrease in viral load
CC(=O)N[C@H]1C(O)O[C@H](CO)[C@@H](O)[C@@H]1O[C@H](C)C(=O)N[C@@H](C)C(=O)N[C@H](CCC(=O)O)C(N)=O (some centres unmarked) [NacMDP, N-acetyl muramyl dipeptide, reference compound]	–	–	–	–	–	–	–	–	–	–	–	do not induce significant IL-6 secretion compared to background	significantly enhance IL-6 secretion	–	–
